13 compounds from patent US11739098B2 (BRISTOL-MYERS SQUIBB COMPANY, priority 2017, dated 2023) can be followed below.

What all share (type): cell-based
The target of experiment [1] is T1, human TLR7 (Homo sapiens, UniProt Q9NYK1).
T1 construct: host or cells: HEK-Blue cells (HEK293-derived reporter line)
T1 sequence (Q9NYK1 27-1049): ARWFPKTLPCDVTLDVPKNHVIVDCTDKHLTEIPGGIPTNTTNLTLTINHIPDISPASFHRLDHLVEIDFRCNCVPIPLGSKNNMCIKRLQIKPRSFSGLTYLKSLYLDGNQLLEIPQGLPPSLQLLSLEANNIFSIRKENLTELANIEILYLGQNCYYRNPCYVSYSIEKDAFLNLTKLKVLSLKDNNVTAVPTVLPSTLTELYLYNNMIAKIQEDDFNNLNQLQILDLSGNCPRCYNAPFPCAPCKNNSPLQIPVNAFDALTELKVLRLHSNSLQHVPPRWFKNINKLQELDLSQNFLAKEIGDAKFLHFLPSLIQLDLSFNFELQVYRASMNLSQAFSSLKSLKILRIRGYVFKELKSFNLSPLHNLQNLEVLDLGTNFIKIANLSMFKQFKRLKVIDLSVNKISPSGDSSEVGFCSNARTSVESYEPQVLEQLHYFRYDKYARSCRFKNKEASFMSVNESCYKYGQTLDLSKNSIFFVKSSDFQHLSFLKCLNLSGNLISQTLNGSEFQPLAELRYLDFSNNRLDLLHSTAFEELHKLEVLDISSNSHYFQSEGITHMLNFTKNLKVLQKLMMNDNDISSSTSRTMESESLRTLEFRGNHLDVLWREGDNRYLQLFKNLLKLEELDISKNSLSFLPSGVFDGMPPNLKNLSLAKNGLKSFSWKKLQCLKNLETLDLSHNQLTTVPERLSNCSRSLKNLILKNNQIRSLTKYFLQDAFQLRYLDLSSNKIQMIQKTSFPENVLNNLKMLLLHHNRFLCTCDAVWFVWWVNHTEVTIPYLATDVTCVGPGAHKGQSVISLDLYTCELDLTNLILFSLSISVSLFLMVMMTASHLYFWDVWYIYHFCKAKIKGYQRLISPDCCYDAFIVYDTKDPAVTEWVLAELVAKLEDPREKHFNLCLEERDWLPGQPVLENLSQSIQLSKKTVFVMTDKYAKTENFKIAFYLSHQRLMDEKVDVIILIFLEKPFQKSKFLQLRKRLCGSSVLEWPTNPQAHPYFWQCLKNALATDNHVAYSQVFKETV
Nature of the experiment: TLR7 inhibition reporter assay (HEK-Blue cells, SEAP reporter, gardiquimod stimulation). Conditions: HEK-Blue cells overexpressing human TLR7, SEAP reporter, gardiquimod 7.5 μM. An outline of the steps:
(§1)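 HEK-Blue cells overexpressing the receptor, with NF-κB/AP-1-driven SEAP, were pre-treated 30 min at room temperature with compound (0.05 nM–50 μM), then stimulated with gardiquimod 7.5 μM (TLR7), R848 15.9 μM (TLR8) or ODN2006 5 nM (TLR9). SEAP was read after 22 h at 37 °C as percent inhibition.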
Background: Reporter assays use an easily measured gene product as a stand-in for the process of interest.

Experiment [2] concerns the target T2, human TLR8 (Homo sapiens, UniProt Q9NR97).
T2 construct: host or cells: HEK-Blue cells (HEK293-derived reporter line)
T2 sequence (Q9NR97 27-1041): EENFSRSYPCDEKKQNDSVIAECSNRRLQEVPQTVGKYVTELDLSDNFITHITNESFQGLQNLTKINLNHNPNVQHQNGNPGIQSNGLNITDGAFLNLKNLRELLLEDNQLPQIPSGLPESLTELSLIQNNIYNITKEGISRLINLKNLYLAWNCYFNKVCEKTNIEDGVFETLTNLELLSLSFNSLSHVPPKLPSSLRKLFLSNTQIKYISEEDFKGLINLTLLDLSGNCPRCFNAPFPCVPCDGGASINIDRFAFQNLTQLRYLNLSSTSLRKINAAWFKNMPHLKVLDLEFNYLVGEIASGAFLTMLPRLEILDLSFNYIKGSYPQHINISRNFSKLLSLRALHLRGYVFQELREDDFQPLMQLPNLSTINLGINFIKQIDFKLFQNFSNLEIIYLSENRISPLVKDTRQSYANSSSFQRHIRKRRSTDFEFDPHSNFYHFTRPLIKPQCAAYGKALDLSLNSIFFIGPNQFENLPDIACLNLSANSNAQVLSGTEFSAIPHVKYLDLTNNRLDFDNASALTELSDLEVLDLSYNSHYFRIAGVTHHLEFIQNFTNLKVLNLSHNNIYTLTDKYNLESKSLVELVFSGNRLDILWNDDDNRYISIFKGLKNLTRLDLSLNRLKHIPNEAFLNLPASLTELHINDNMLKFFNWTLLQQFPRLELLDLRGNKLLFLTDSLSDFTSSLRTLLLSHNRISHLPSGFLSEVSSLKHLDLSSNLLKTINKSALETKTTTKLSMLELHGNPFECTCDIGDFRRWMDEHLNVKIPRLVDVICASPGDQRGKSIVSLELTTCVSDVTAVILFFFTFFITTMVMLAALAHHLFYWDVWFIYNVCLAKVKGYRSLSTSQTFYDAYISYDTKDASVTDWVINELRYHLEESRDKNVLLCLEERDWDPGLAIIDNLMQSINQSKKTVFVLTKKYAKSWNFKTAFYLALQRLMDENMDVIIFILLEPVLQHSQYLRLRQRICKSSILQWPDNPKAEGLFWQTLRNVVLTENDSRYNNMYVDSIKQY
Nature of the experiment: TLR8 inhibition reporter assay (HEK-Blue cells, SEAP reporter, R848 stimulation). Conditions: HEK-Blue cells overexpressing human TLR8, SEAP reporter, R848 15.9 μM. The gist of the method:
as §1

In experiment [3] the target is T3, human TLR9 (Homo sapiens, UniProt Q9NR96).
T3 construct: host or cells: HEK-Blue cells (HEK293-derived reporter line)
T3 sequence (Q9NR96 26-1032): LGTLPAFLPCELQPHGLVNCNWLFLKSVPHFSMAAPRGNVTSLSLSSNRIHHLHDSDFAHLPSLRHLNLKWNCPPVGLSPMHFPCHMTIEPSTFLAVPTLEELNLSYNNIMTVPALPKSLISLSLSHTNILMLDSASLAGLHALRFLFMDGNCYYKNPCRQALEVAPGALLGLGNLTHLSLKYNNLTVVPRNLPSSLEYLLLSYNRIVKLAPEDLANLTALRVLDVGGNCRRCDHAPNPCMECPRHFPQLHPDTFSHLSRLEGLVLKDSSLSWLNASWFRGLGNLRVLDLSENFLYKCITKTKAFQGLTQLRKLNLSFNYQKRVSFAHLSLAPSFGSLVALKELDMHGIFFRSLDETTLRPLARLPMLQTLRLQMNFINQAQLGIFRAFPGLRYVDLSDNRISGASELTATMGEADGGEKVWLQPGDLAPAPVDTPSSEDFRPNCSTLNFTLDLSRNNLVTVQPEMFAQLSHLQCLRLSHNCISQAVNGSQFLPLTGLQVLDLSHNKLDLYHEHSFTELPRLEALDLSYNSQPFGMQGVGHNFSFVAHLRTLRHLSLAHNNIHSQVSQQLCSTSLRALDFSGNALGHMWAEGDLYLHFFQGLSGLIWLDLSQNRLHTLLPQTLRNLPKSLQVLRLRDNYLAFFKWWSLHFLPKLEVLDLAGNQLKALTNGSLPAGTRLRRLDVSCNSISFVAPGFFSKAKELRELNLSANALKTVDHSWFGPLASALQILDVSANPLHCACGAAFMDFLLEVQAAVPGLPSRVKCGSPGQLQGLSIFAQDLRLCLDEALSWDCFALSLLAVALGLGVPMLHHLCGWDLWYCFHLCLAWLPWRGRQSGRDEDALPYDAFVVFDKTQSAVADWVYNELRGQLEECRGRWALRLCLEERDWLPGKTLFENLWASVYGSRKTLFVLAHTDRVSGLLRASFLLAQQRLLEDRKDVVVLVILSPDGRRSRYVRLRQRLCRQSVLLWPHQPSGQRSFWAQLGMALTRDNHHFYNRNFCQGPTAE
Nature of the experiment: TLR9 inhibition reporter assay (HEK-Blue cells, SEAP reporter, ODN2006 stimulation). Conditions: HEK-Blue cells overexpressing human TLR9, SEAP reporter, ODN2006 5 nM. An outline of the steps:
as §1

With `COc1cc(-c2[nH]c3ccc(C4CCNCC4)cc3c2C(C)C)cn2ccnc12` [Example 125, 6-(3-isopropyl-5-(piperidin-4-yl)-1H-indol-2-yl)-8-methoxyimidazo[1,2-a]pyridine], the IC50 in experiment [1] is under 100 nM; in experiment [2], under 100 nM; in experiment [3], 100 to 1000 nM.
As for `CNC(=O)CN1CCC(c2ccc3[nH]c(-c4cn(C)c5ncccc45)c(C(C)C)c3c2)CC1` [Example 293, 2-(4-(3-isopropyl-2-(1-methyl-1H-pyrrolo[2,3-b]pyridin-3-yl)-1H-indol-5-yl)piperidin-1-yl)-N-methylacetamide], the half-inhibitory concentration (IC50) in experiment [1] is under 100 nM; in experiment [2], under 100 nM; in experiment [3], 1000 to 50000 nM.
As for `Cc1nc2c(-c3[nH]c4ccc(C5CCN(C(=O)CN(C)C)CC5)cc4c3C(C)C)ccc(C)n2n1` [Example 515, 1-(4-(2-(2,5-dimethyl-[1,2,4]triazolo[1,5-a]pyridin-8-yl)-3-isopropyl-1H-indol-5-yl)piperidin-1-yl)-2-(dimethylamino)ethan-1-one], the half-maximal inhibitory concentration (IC50) in experiment [1] is 1000 to 50000 nM; in experiment [2], 100 to 1000 nM; in experiment [3], 1000 to 50000 nM.
As for `CC(C)c1c(-c2ccnc3[nH]ncc23)[nH]c2ccc(C3CCN(C4CCNCC4C)CC3)cc12` (stereo not drawn) [Example 834, 4-(3-isopropyl-5-(3′-methyl-[1,4′-bipiperidin]-4-yl)-1H-indol-2-yl)-1H-pyrazolo[3,4-b]pyridine], the half-inhibitory concentration (IC50) in experiment [1] was under 100 nM; in experiment [2], under 100 nM; in experiment [3], 100 to 1000 nM.
In the case of `Cc1cc(-c2[nH]c3ccc(C4CCN(CC(=O)N(C)C)CC4)cc3c2C(C)C)cn2nncc12` [Example 307, 2-(4-(3-isopropyl-2-(4-methyl-[1,2,3]triazolo [1,5-a]pyridin-6-yl)-1H-indol-5-yl)piperidin-1-yl)-N,N-dimethylacetamide], the IC50 in experiment [1] fell in the range of 100 to 1000 nM; in experiment [2], 100 to 1000 nM; in experiment [3], 1000 to 50000 nM.
As for `Cc1cc(-c2[nH]c3ccc(C4CCN(C(=O)CCN5CC6(COC6)C5)CC4)cc3c2C(C)C)cn2nnnc12` [Example 631, 1-(4-(3-isopropyl-2-(8-methyltetrazolo[1,5-a]pyridin-6-yl)-1H-indol-5-yl)piperidin-1-yl)-3-(2-oxa-6-azaspiro[3.3]heptan-6-yl)propan-1-one], the half-maximal inhibitory concentration (IC50) in experiment [1] was under 100 nM; in experiment [2] it was under 100 nM; in experiment [3] it was 100 to 1000 nM.
Take `Cc1cc(-c2[nH]c3ccc(C4CCNCC4)cc3c2C(C)C)cn2c(C#N)cnc12` [Example 130, 6-(3-isopropyl-5-(piperidin-4-yl)-1H-indol-2-yl)-8-methylimidazo[1,2-a]pyridine-3-carbonitrile]: the IC50 in experiment [1] was 100 to 1000 nM; in experiment [2], under 100 nM; in experiment [3], 1000 to 50000 nM.
For the compound `CC(C)c1c(-c2ccc3cncn3c2)[nH]c2ccc(C3CCNCC3)cc12` [Example 183, 6-(3-isopropyl-5-(piperidin-4-yl)-1H-indol-2-yl)imidazo[1,5-a]pyridine], the 50% inhibitory concentration (IC50) lay within 100 to 1000 nM in experiment [1], 100 to 1000 nM in experiment [2] and 1000 to 50000 nM in experiment [3].
For `CC(C)c1c(-c2ccc3ncc(C#N)n3c2)[nH]c2ccc(C3CCNCC3)cc12` [Example 119, 6-(3-isopropyl-5-(piperidin-4-yl)-1H-indol-2-yl)imidazo[1,2-a]pyridine-3-carbonitrile], the IC50 lay in the range of 100 to 1000 nM in experiment [1], 100 to 1000 nM in experiment [2] and 1000 to 50000 nM in experiment [3].
For `CC(C)c1c(-c2cnc3c(cnn3C)c2)[nH]c2ccc(C3CCNCC3)cc12` [Example 96, 5-(3-isopropyl-5-(piperidin-4-yl)-1H-indol-2-yl)-1-methyl-1H-pyrazolo[3,4-b]pyridine], the concentration for half-maximal inhibition (IC50) in experiment [1] was under 100 nM; in experiment [2], under 100 nM; in experiment [3], 100 to 1000 nM.
For the compound `CNC(=O)CN1CCC(c2ccc3[nH]c(-c4cnc5nn(C)cc5c4)c(C(C)C)c3c2)CC1` [Example 368, 2-(4-(3-isopropyl-2-(2-methyl-2H-pyrazolo[3,4-b]pyridin-5-yl)-1H-indol-5-yl)piperidin-1-yl)-N-methylacetamide], the IC50 in experiment [1] is 1000 to 50000 nM; in experiment [2], over 3130 nM; in experiment [3], 1000 to 50000 nM.
Turning to `Cc1cc(-c2[nH]c3ccc(C4CCNCC4)cc3c2C(C)C)cc2cnnn12` [Example 78, 5-(3-isopropyl-5-(piperidin-4-yl)-1H-indol-2-yl)-7-methyl-[1,2,3]triazolo[1,5-a]pyridine], the results for the IC50 in experiment [1], in experiment [2] and in experiment [3] were under 100 nM, under 100 nM and 1000 to 50000 nM, respectively.
On to `CNCCN1CCC(c2ccc3[nH]c(-c4ccnc5[nH]ncc45)c(C(C)C)c3c2)C(F)C1` (stereo not drawn) [Example 675, 2-(3-fluoro-4-(3-isopropyl-2-(1H-pyrazolo[3,4-b]pyridin-4-yl)-1H-indol-5-yl)piperidin-1-yl)-N-methylethan-1-amine], for which the values for the half-inhibitory concentration (IC50) in experiment [1], in experiment [2] and in experiment [3] were under 100 nM, under 100 nM and 100 to 1000 nM, respectively.

By IC50 is commonly meant the midpoint of a concentration-inhibition curve.
